Results on 6 molecules are retold here after patent EP4768484A1, “HETEROCYCLIC FUSED RING COMPOUND, AND COMPOSITION AND USE THEREOF” (Shenzhen TargetRx, Inc., priority 2023, dated 2025).

What all share (format): cell-based
The test system of assay [1] is K562 cells. Kind of assay: Cell growth inhibitory activity assay (CellTiter-Glo), K562 cells. Particulars: Homo sapiens, 72 h, CTG cell viability. Summed up: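 Growth inhibition of human K562 cells, sourced from Nanjing Kebai (CBP60529), was assessed with Promega's CellTiter-Glo kit, which measures viability through ATP quantification. Log-phase cells went into the inner wells of 96-well plates, with PBS in edge wells, incubated overnight at 37 °C and 5% CO2, then exposed to serially diluted compound for 72 h.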
(ATP-based viability assays read luminescence as a measure of living cells.)

The target of assay [2] is T1, Ba/F3 BCR-ABL1 WT (Homo sapiens, UniProt P00519+P11274).
T1 construct: BCR (N-terminal fusion partner of the oncoprotein); expressed in transfected cells; host or cells: Ba/F3 (lentiviral transduction, monoclonal line)
Description: Cell growth inhibitory activity assay (CellTiter-Glo), Ba/F3 BCR-ABL1 WT cells. Particulars: 72 h, CTG cell viability. Summed up:
(§1)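 Ba/F3 lines stably transduced by lentivirus with WT or mutant BCR-ABL1, alongside untransduced parental Ba/F3, were seeded and incubated overnight at 37 °C, 5% CO2, then exposed to serially diluted compound for 72 h. Viability was read as ATP by CellTiter-Glo luminescence against a day-of-dosing T0 plate; IC50 from four-parameter nonlinear fit.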

Assay [3] deals with T2, Ba/F3 BCR-ABL1 T315I (Homo sapiens, UniProt P00519+P11274, T315I).
T2 construct: BCR (N-terminal fusion partner of the oncoprotein); expressed in transfected cells; host or cells: Ba/F3 (lentiviral transduction, monoclonal line)
Kind of assay: Cell growth inhibitory activity assay (CellTiter-Glo), Ba/F3 BCR-ABL1 T315I cells. Particulars: 72 h, CTG cell viability. In a few lines:
as §1

Assay [4] concerns Ba/F3 parental cells. Kind of assay: Cell growth inhibitory activity assay (CellTiter-Glo), Ba/F3 parental cells. Particulars: Mus musculus, BaF3, 72 h, CTG cell viability, read-out: IC50 Ba/F3 BCR-ABL1 Parental. Summed up: as §1

pIC50: −log10 of the molar value.

Take `C[C@@H]1COCc2nc3cc(C(=O)Nc4ccc(OC(F)(F)Cl)cc4)cc(-c4cnc5c(c4)-c4nn(-c6nccc(-c7ccccc7)n6)cc4C5)c3n21` [T-81, (R)-N-(4-(chlorodifluoromethoxy)phenyl)-4-methyl-6-(2-(4-phenyloyrimidin-2-yl)-2,4-dihydropyrazolo[3',4':3,4]cyclopenta[1,2-b]pyridin-7-yl)-3,4-dihydro-1H-benzo[4,5]imidazo[2,1-c][1,4]oxazine-8-carboxamide]: the pIC50 in assay [1] is not below 8.30; in assay [2], not below 8.30; in assay [3] it was not below 8.30; in assay [4], less than 6.00.
With `C[C@@H]1COCc2nc3cc(C(=O)Nc4ccc(OC(F)(F)Cl)cc4)cc(-c4cnc5c(c4)-c4c(cnn4-c4ncc6ccccc6n4)C5)c3n21` [T-82-A, (R)-N-(4-(chlorodifluoromethoxy)phenyl)-4-methyl-6-(1-(guinazolin-2-yl)-1,4-dihvdropyrazolo[3',4':3,4]cyclopenta[1,2-b]pyridin-7-yl)-3,4-dihydro-1H-benzo[4,5]imidazo[2,1-c][1,4]oxazine-8-carboxamide], the pIC50 is not below 8.30 in assay [1], not below 8.30 in assay [2], 7.30 to 8.30 in assay [3] and less than 6.00 in assay [4].
As for `C[C@@H]1COCc2nc3cc(C(=O)Nc4ccc(OC(F)(F)Cl)cc4)cc(-c4cnc5c(c4)-c4nn(-c6ncc7ccccc7n6)cc4C5)c3n21` [T-82-B, (R)-N-(4-(chlorodifluoromethoxy)phenyl)-4-methyl-6-(2-(quinazolin-2-yl)-2,4-dihydropyrazolo[3',4':3,4]cyclopenta[1,2-b]pyridin-7-yl)-3,4-dihydro-1H-benzo[4,5]imidazo[2,1-c][1,4]oxazine-8-carboxamide], the pIC50 in assay [1] is not below 8.30; in assay [2], not below 8.30; in assay [3], not below 8.30; in assay [4], less than 6.00.
Take `C[C@@H]1COCc2nc3cc(C(=O)Nc4ccc(OC(F)(F)Cl)cc4)cc(-c4cnc5c(c4)-c4nn(-c6ncc7ccsc7n6)cc4C5)c3n21` [T-83, (R)-N-(4-(chlorodifluoromethoxy)phenyl)-4-methyl-6-(2-(thieno[2,3-d]pyrimidin-2-yl)-2,4-dihydropyrazolo[3',4':3,4]cyclopenta[1,2-b]pyridin-7-yl)-3,4-dihydro-1H-benzo[4,5]imidazo[2,1-c][1,4]oxazine-8-carboxamide]: the pIC50 in assay [1] is not below 8.30; in assay [2], not below 8.30; in assay [3] it was not below 8.30; in assay [4] it was less than 6.00.
Take `C[C@@H]1COCc2nc3cc(C(=O)Nc4ccc(OC(F)(F)Cl)cc4)cc(-c4cnc5c(c4)-c4nn(-c6ncc7c(ccn7C)n6)cc4C5)c3n21` [T-84, (R)-N-(4-(chlorodifluoromethoxy)phenyl)-4-methyl-6-(2-(5-methyl-5H-pyrrolo[3,2-d]pyrimidin-2-yl)-2,4-dihydropyrazolo[3',4':3,4]cyclopenta[1,2-b]pyridin-7-yl)-3,4-dihydro-1H-benzo[4,5]imidazo[2,1-c][1,4]oxazine-8-carboxamide]: the pIC50 in assay [1] is not below 8.30; in assay [2], not below 8.30; in assay [3], not below 8.30; in assay [4] it was less than 6.00.
`C[C@@H]1COCc2nc3cc(C(=O)Nc4ccc(OC(F)(F)Cl)cc4)cc(-c4cnc5c(c4)-c4nn(-c6ncc7ccn(C)c7n6)cc4C5)c3n21` [T-85, (R)-N-(4-(chlorodifluoromethoxy)phenyl)-4-methyl-6-(2-(7-methyl-7H-pyrrolo[2,3-d]pyrimidin-2-yl)-2,4-dihydropyrazolo[3',4':3,4]cyclopenta[1,2-b]pyridin-7-yl)-3,4-dihydro-1H-benzo[4,5]imidazo[2,1-c][1,4]oxazine-8-carboxamide]: the pIC50 in assay [1] was not below 8.30; in assay [2], not below 8.30; in assay [3] it was not below 8.30; in assay [4], less than 6.00.
